Test results: patent publication US4170649A, “1,4-Benzodiazepine derivatives, pharmaceutical compositions thereof, and process for their preparation” (Kali-Chemie Pharma GmbH, priority 1977, dated 1979)
Read-outs that look alike come from different tables or passages of the source.

Columns and labels:
[1] = Acute 7-day toxicity in mice (LD50); conditions: mouse, in vivo, white NMRI-mice not fed
Experimental: The acute 7-day-toxicity in white NMRI-mice is determined after administration of a single dose of the test compound per os or i.p. to the mice which had not been fed. The calculation of the LD50 is carried out by probitanalysis by means of electronic data processing (see L. Cavelli-Sforza, Gustav Fischer-Verlag, Stuttgart, (1964), Grundbegriffe der Biometrie, p. 153).

[2] = system: hexobarbital-induced sleep in mice; assay: CNS-depressant properties: prolongation of hexobarbital-induced sleep in mice; format: in vivo; conditions: Mus musculus, 0.5 h, oral, 64 mg/kg hexobarbital i.v. 30 minutes after application, 50% of animals with side-posture 4 times as long as control
Experimental: The test compounds are orally applied to mice. Additionally, a dose of 64 mg/kg of hexobarbital is injected, i.v., into the animals 30 minutes after application of the test compound. The point of time at which the animals lie down on their side and the duration of this side-posture are determined and are compared with the postural behavior of animals which are treated only with hexobarbital. The ED50 is defined as the dose which causes 50% of the animals to maintain the side-wise posture for a period of time which is 4 times as long as the period of time during which the control animals remain in their side-wise lying posture (see J. W. Kemp, M. Tannhaeuser and E. A. Swinyard, Arch. int. Pharmacodyn. 193 (1971), p. 37-47).

[3] = system: pentetrazole-induced convulsions; assay: Anti-convulsive activity against pentetrazole-induced spasms; format: in vivo; conditions: Mus musculus; oral, mice; 100 mg/kg pentetrazole s.c. 60 minutes after application; observed 45 minutes; read-out: Inhibition of Pentetrazole-induced convulsions ED50
Experimental: The protective effect of the test compounds against convulsion is determined after oral application to groups of six (6) mice each. 60 minutes after application of the test compounds, a doses of 100 mg/kg of pentetrazole is subcutaneously injected. The occurrance of clonic and tonic convulsions is observed during a total period of 45 minutes. the protective effect of the test compounds against convulsion is determined by comparison with simultaneously performed tests in control-animals. The effective dose ED50 is calculated from the probitlogarithmic dosage curves (according to a modified method disclosed by J. E. Blum et al, Arzneimittel-Forsch. 23, 377 (1973)).
The results which are obtained according to the above method, provide an indication of the anti-convulsive activity of the test compounds. In the pharmacological art, it is well-known that this anti-convulsive activity in animals is an important criterion for evaluating the clinical tranquilizer activity of compounds (see A. Suria and E. Costa, Journal de Pharmacologie, Suppl. No. 1, 5, 94 (1974) and G. Zbinden and L. O. Randall, Advances in Pharmacol. 5, 257, (1967)). The test results given in Table II show a clear superiority of the compounds according to the present invention as compared to chlordiazepoxide.

[4] = system: isolation-induced aggressiveness in mice; assay: Inhibition of isolation-induced aggressiveness in mice (anti-aggressive and anxiety-relieving activity); format: in vivo; conditions: Mus musculus, oral, isolated mice, 50% reduction of aggressive behavior
Experimental: Prior to carrying out the test, the mice are kept in strict isolation in single cages for a period of 4 weeks. After this period of isolation, mice which have been kept isolated spontaneously attack other mice which are introduced into their cage and had not been previously isolated. The test compounds are orally administered to the isolated mice and after a period of 30 minutes or 60 minutes after application, the dose which leads to a 50% reduction of the aggressive behavior is determined (according to a modified method described by Weischer and Opitz, Arch. int. Pharmacodyn. 195, 252 (1972)). The results which are obtained in this test are a valid indication of the activity of the tested compounds in relieving anxiety and stress-induced tensions.

[5] = ip, single dose i.p., read-out: LD50 i.p.
[6] = po, single dose per os, read-out: LD50 p.o.
[7] = 0.5 h, 30 minutes after application, read-out: Inhibition of isolation-induced aggressiveness in mice ED50 (30')
[8] = 1 h, 60 minutes after application, read-out: Inhibition of isolation-induced aggressiveness in mice ED50 (60')

Structure (SMILES) | LD50 at 168 h [1, 5] | LD50 at 168 h [1, 6] | ED50 [2] | ED50 [3] | ED50 [4, 7] | ED50 [4, 8]
CN1C(=CC(N)=O)CN=C(c2ccccc2)c2cc(Cl)ccc21 [Compound No. 1, 7-chloro-1-methyl-2-carbamoylmethylene-5-phenyl-1,3-dihydro-2H-1,4-benzodiazepine] | 288 mg/kg | > 1470 mg/kg | 3.2 mg/kg | 2.4 mg/kg | 12.2 mg/kg | 9.6 mg/kg
CN1C(=CC(N)=O)CN=C(c2ccccc2Cl)c2cc(Cl)ccc21 [Compound No. 2, 7-chloro-1-methyl-2-carbamoylmethylene-5-(2'-chlorophenyl)-1,3-dihydro-2H-1,4-benzodiazepine] | 410 mg/kg | > 1000 mg/kg | 5 mg/kg | 0.1 mg/kg | 2.2 mg/kg | 3.4 mg/kg
CN1C(=CC(N)=O)CN=C(c2ccccc2F)c2cc(Cl)ccc21 [Compound No. 3, 7-chloro-1-methyl-2-carbamoylmethylene-5-(2'-fluorophenyl)-1,3-dihydro-2H-1,4-benzodiazepine] | 572 mg/kg | > 1470 mg/kg | 1.6 mg/kg | 0.4 mg/kg | 2.1 mg/kg | 3.9 mg/kg
CN1C(=CC(N)=O)CN=C(c2ccccc2C(F)(F)F)c2cc(Cl)ccc21 [Compound No. 4, 7-chloro-1-methyl-2-carbamoylmethylene-5-(2'-trifluoromethylphenyl)-1,3-dihydro-2H-1,4-benzodiazepine] | 287 mg/kg | > 1470 mg/kg | 3.1 mg/kg | 0.3 mg/kg | 31.1 mg/kg | 31.1 mg/kg
CN1C(=CC(N)=O)CN=C(c2ccccc2Cl)c2cc(Br)ccc21 [Compound No. 5, 7-bromo-1-methyl-2-carbamoylmethylene-5-(2'-chlorophenyl)-1,3-dihydro-2H-1,4-benzodiazepine] | > 1600 mg/kg | > 1470 mg/kg | 1.3 mg/kg | 0.3 mg/kg | 5.4 mg/kg | 4.6 mg/kg
CN1C(=CC(N)=O)CN=C(c2ccccc2F)c2cc(Br)ccc21 [Compound No. 6, 7-bromo-1-methyl-2-carbamoylmethylene-5-(2'-fluorophenyl)-1,3-dihydro-2H-1,4-benzodiazepine] | 574 mg/kg | > 1470 mg/kg | 2.6 mg/kg | 0.4 mg/kg | 4.8 mg/kg | 5.7 mg/kg
CN1C(=CC(N)=O)CN=C(c2ccccc2Cl)c2cc([N+](=O)[O-])ccc21 [Compound No. 7, 7-nitro-1-methyl-2-carbamoylmethylene-5-(2'-chlorophenyl)-1,3-dihydro-2H-1,4-benzodiazepine] | – | > 1470 mg/kg | 2.5 mg/kg | 1 mg/kg | – | –
CNC1=Nc2ccc(Cl)cc2C(c2ccccc2)=[N+]([O-])C1 [comparison, 7-chloro-2-methylamino-5-phenyl-3H-1,4-benzodiazepine-4-oxide, reference compound] | 300 mg/kg | 903 mg/kg | 6 mg/kg | 5 mg/kg | 60 mg/kg | 47 mg/kg
